Data on three molecules can be found in patent US9381201B2, “Pharmaceutical composition and kit for treating bacterial infections” (priority 2011, dated 2016).

Series [1] deals with intracellular Mycobacterium tuberculosis. To be noted: cited from earlier work.
In series [2] the test system is gram-positive microorganisms. As to conditions: many gram-positive microorganisms; cited from earlier work.
Series [3] relates to tuberculosis Mycobacterium. As to conditions: cited from earlier work.
A further series relates to Streptococcus pyogenes. As to conditions: Streptococcus pyogenes resistant to penicillin and other antibiotics; cited from earlier work.
The subject of the next series is gram-negative bacteria. To be noted: a large number of gram-negative bacteria; cited from earlier work.
For series [4] the following is noted: in vivo; cited from earlier work.
The test system of series [5] is Mycobacterium tuberculosis Erdman (ATCC 35801). The experiment in a line: anti-tuberculosis activity on a model of mice infected with Mycobacterium tuberculosis (acute tuberculosis infection). As to conditions: Rifalazil 2.5 mg/kg/day intraperitoneally, 3 week administration, BALB/c mice.

`CO[C@H]1/C=C/O[C@@]2(C)Oc3c(C)c(O)c4c(c3C2=O)C2=NC3(CCN(CC(C)C)CC3)NC2=C(NC(=O)/C(C)=C\C=C\[C@H](C)[C@H](O)[C@@H](C)[C@@H](O)[C@@H](C)[C@H](OC(C)=O)[C@@H]1C)C4=O` [Rifabutin]: the “active concentration relative to Rifampicin” value in series [1] is 2 times less.
For the molecule `CO[C@H]1/C=C/O[C@@]2(C)Oc3c(C)c(O)c4c(O)c(c(/C=N/N5CCN(C)CC5)c(O)c4c3C2=O)NC(=O)/C(C)=C\C=C\[C@H](C)[C@H](O)[C@@H](C)[C@@H](O)[C@@H](C)[C@H](OC(C)=O)[C@@H]1C` [Rifampicin], the minimal inhibiting concentration in series [2] was 1 to 100 ng/mL; in series [3], 5 to 500 ng/mL; in the series with gram-negative bacteria, 1000 to 10000 ng/mL. Further, the “share of Streptococcus pyogenes sensitive” value in the series with Streptococcus pyogenes is on record as “Over 95%”.
As for Rifalazil, in series [4], the half-life of elimination was above 100 h. Besides, the “Lowering of micobacterium titers in mice lungs in comparison with the control (CMC) on the 31 day” value in series [5] is 87 times.
